Data from patent US20050004132A1, “Nitrogenous tetrahydropyridyl-alkyl-heterocycles with tnf activity” (priority 2001, published 2005).
Counter-ions that a name gives are not always drawn.

Row | Structure (SMILES) | melting point
1 | FC(F)(F)c1cccc(C2=CCN(CCc3cccc(-c4cnccn4)c3)CC2)c1 (as salt: oxalate) [14] | 199 to 201 °C
2 | Clc1cccc(C2=CCN(CCc3cccc(-c4ccncc4)c3)CC2)n1 (as salt: oxalate) | 183 to 186 °C
3 | FC(F)(F)c1cccc(C2=CCN(CCc3cccc(-c4ccccn4)c3)CC2)n1 (as salt: oxalate) | 126 to 129 °C
4 | Fc1cccc(C2=CCN(CCc3cccc(-c4ccccn4)c3)CC2)c1 (as salt: oxalate) | 175 to 177 °C
5 | Cc1ccc(-c2cccc(CCN3CC=C(c4cccc(C(F)(F)F)c4)CC3)c2)cn1 (as salt: oxalate) | 170 to 173 °C
6 | FC(F)(F)c1cccc(C2=CCN(CCc3cccc(-c4ccccn4)c3)CC2)c1 (as salt: oxalate) | 182 to 186 °C
7 | FC(F)(F)c1cccc(C2=CCN(CCc3cccc(-c4cnccn4)c3)CC2)c1 (as salt: oxalate) [12] | 205 to 207 °C
